Data published in ChEMBL document CHEMBL1133910, “N-hydroxyformamide peptidomimetics as TACE/matrix metalloprotease inhibitors: oral activity via P1' isobutyl substitution” (Bioorg Med Chem Lett, 2001).
The source made the active and inactive calls. No cut-off for these calls is given here.

Columns and labels:
Mus musculus [1] = experiment: In vivo inhibition of Murine Lipopolysaccharide induced plasma TNF on peroral administration of the compound; assay type: functional; parameters: concentration or dose not given beside the values
Stromelysin-1 [2] = biological target: T1, Stromelysin-1 (Homo sapiens, UniProt P08254); experiment: Inhibition of matrix metalloprotease-3 (MMP3)
T1 sequence (P08254 whole entry): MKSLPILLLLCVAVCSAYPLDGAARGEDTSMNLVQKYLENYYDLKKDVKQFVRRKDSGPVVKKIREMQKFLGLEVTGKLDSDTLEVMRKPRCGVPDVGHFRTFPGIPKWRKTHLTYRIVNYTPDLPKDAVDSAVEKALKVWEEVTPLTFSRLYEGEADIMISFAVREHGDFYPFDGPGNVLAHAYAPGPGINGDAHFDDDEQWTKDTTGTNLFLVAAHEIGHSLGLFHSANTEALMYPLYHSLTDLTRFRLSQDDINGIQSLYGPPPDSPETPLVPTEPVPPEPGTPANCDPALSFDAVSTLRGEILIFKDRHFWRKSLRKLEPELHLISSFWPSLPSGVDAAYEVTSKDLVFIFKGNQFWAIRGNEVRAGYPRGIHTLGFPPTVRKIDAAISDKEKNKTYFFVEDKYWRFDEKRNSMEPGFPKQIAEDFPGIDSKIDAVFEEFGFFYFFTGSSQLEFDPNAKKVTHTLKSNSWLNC

[3] = biological target: Matrix metalloproteinase-9 (Homo sapiens, UniProt P14780); experiment: Inhibition of Matrix metalloprotease-9
Sequence of Matrix metalloproteinase-9 (P14780 whole entry): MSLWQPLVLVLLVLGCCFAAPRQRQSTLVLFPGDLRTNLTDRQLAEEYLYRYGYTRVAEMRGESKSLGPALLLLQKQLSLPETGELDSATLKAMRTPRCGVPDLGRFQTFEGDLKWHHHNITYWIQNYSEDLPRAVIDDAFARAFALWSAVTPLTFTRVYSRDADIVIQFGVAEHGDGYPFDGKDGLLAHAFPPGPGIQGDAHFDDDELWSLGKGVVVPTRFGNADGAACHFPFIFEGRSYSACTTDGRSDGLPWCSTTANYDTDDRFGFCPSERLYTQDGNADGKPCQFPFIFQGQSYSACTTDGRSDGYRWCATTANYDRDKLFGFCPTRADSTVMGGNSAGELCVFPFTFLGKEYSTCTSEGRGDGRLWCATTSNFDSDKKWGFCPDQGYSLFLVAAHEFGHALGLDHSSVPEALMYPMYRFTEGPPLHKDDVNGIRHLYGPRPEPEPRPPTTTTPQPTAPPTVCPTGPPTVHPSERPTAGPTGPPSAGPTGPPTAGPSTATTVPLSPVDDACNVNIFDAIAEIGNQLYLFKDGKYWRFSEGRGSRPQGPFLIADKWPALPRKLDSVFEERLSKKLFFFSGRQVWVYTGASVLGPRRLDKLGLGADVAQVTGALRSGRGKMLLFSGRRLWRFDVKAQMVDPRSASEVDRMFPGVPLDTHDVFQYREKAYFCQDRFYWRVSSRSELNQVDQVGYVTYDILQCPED

[4] = Compound was evaluated for inhibition of cellular release of TNF-alpha from MonoMac-6 cells; assay type: functional, cell-based; settings: Homo sapiens, MONO-MAC-6
Interstitial collagenase = biological target: T2, Interstitial collagenase (Homo sapiens, UniProt P03956); experiment: Inhibition of Matrix metalloprotease-1
T2 sequence (P03956 whole entry): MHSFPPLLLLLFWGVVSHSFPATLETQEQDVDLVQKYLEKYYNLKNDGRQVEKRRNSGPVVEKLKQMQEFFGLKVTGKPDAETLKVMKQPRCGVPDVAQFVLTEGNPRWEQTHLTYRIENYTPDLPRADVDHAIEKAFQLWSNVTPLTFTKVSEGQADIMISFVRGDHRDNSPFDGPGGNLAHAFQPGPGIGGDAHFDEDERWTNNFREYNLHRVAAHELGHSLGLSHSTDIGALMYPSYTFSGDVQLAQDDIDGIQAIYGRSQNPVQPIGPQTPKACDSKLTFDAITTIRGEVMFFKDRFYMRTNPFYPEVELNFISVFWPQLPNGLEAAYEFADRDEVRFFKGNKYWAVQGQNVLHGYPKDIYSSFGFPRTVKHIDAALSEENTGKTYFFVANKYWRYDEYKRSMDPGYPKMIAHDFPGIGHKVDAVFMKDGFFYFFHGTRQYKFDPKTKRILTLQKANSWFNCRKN

[5] = biological target: T3, Disintegrin and metalloproteinase domain-containing protein 17 (Homo sapiens, UniProt P78536); experiment: Inhibition of Tumor necrosis factor alpha converting enzyme
T3 sequence (P78536 whole entry, the tested form may be a part): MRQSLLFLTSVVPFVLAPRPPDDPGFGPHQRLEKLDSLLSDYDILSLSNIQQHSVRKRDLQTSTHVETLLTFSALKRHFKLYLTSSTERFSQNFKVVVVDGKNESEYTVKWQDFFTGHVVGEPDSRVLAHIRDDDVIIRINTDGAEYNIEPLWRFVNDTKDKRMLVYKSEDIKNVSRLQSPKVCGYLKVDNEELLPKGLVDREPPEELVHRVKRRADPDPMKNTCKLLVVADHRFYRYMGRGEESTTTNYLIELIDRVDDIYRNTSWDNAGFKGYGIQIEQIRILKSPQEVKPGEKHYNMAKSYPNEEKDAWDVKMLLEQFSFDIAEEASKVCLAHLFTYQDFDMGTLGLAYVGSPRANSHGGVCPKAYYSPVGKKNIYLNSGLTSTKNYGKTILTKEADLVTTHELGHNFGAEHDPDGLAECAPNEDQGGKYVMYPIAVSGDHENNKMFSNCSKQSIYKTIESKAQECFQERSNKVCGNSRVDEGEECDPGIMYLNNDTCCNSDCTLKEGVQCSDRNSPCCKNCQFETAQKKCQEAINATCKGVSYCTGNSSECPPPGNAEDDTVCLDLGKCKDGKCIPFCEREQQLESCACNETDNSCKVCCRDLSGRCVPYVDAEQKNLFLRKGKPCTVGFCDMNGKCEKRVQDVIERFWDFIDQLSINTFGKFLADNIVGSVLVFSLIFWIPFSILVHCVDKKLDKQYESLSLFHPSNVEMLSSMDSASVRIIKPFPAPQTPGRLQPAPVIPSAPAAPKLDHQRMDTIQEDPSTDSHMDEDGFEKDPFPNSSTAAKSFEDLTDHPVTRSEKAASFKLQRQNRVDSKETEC

Stromelysin-1 [6] = biological target: T1, Stromelysin-1; experiment: Inhibition of Matrix metalloprotease-3
Mus musculus [7] = experiment: In vivo inhibition of Murine Lipopolysaccharide induced plasma TNF on peroral administration of the compound; IA means inactive; assay type: functional, organism-based
[8] = biological target: T3, Disintegrin and metalloproteinase domain-containing protein 17; experiment: Inhibition of TNF-alpha converting enzyme (TACE)
Mus musculus [9] = experiment: In vivo inhibition of Murine Lipopolysaccharide induced plasma TNF on peroral administration of the compound; IA means Inactive; assay type: functional, organism-based
[10] = Area under curve was determined for the compound by intravenous administration of 1.2 mg/kg in dog; assay type: ADME, organism-based, Canis lupus familiaris; parameters: dose 1.2 mg/kg, route intravenous; settings: in vivo
Mus musculus [11] = experiment: Percent inhibition of Murine Lipopolysaccharide induced plasma TNF on peroral administration of the compound; assay type: functional
[12] = Bioavailability by intravenous administration of 3.4 mg/kg in rat; assay type: ADME, organism-based; settings: in vivo
[13] = Maximum concentration by intravenous administration of 1.2 mg/kg in dog; assay type: ADME, organism-based, Canis lupus familiaris; parameters: dose 1.2 mg/kg, route intravenous; settings: in vivo
[14] = Area under curve was determined for the compound by intravenous administration of 3.4 mg/kg in rat; assay type: ADME, organism-based; parameters: dose 3.4 mg/kg, route intravenous; settings: in vivo
[15] = Half life by intravenous administration of 1.2 mg/kg in dog; assay type: ADME, organism-based, Canis lupus familiaris; parameters: dose 1.2 mg/kg, route intravenous; settings: in vivo
[16] = Bioavailability by intravenous administration of 1.2 mg/kg in dog; assay type: ADME, organism-based, Canis lupus familiaris; settings: in vivo
[17] = Maximum concentration by intravenous administration of 3.4 mg/kg in rat; assay type: ADME, organism-based; parameters: dose 3.4 mg/kg, route intravenous; settings: in vivo
[18] = Clearance by intravenous administration of 1.2 mg/kg in dog; assay type: ADME, organism-based, Canis lupus familiaris; parameters: dose 1.2 mg/kg, route intravenous; settings: in vivo
[19] = Clearance by intravenous administration of 3.4 mg/kg in rat; assay type: ADME, organism-based; parameters: dose 3.4 mg/kg, route intravenous; settings: in vivo
[20] = Half life by intravenous administration of 3.4 mg/kg in rat; assay type: ADME, organism-based; parameters: dose 3.4 mg/kg, route intravenous; settings: in vivo

| Compound | Inhibition (Mus musculus [1]) | Ki (Stromelysin-1 [2]) | Ki [3] | IC50 [4] | Ki (Interstitial collagenase) | Ki [5] | Ki (Stromelysin-1 [6]) | also measured |
| --- | --- | --- | --- | --- | --- | --- | --- | --- |
| CC[C@@H]([C@@H](CC(C)C)C(=O)N[C@H](C(=O)Nc1ccccn1)C(C)(C)C)N(O)C=O | 61% | 153 nM | 89 nM | 304 nM | 47 nM | 29 nM |  |  |
| CNC(=O)[C@@H](NC(=O)[C@H](CC(C)C)[C@H](C)N(O)C=O)C(C)(C)C |  |  | 21 nM | 2950 nM | 17 nM | 142 nM | 2320 nM |  |
| CC(C)C[C@@H](C(=O)N[C@H](C(=O)Nc1nccs1)C(C)C)[C@H](C)N(O)C=O | 61% |  | 17 nM | 681 nM | 36 nM | 27 nM | 120 nM |  |
| CC(C)C[C@@H](C(=O)N[C@@H](CC(C)(C)C)C(=O)Nc1nccs1)[C@H](C)N(O)C=O |  |  | 98 nM | 3960 nM | 170 nM | 64 nM | 354 nM | inhibition (Mus musculus [7]): inactive |
| CNC(=O)[C@@H](NC(=O)[C@@H](CC(=O)NO)CC(C)C)C(C)(C)C [RO-319790] |  |  | 2 nM | 5720 nM | 2 nM |  | 310 nM | Ki [8]: 87 nM; inhibition (Mus musculus [9]): inactive |
| CC(C)C[C@@H](C(=O)N[C@H](C(=O)Nc1nccs1)C(C)(C)C)[C@H](C)N(O)C=O |  |  | 34 nM | 245 nM | 27 nM | 20 nM | 437 nM | AUC [10]: 2100 ng·h/mL; Inhibition (Mus musculus [11]): 60%; bioavailability [12]: 26%; Cmax [13]: 4530 ng/mL; AUC [14]: 957 ng·h/mL; half-life [15]: 2.8 h; bioavailability [16]: 44%; Cmax [17]: 2330 ng/mL; clearance [18]: 10 mL/min/kg; clearance [19]: 62 mL/min/kg; half-life [20]: 3.4 h |
| CC[C@@H]([C@@H](CC(C)C)C(=O)N[C@H](C(=O)Nc1nccs1)C(C)(C)C)N(O)C=O | 52% | 135 nM | 28 nM | 200 nM | 16 nM | 16 nM |  |  |
| CCC(C)[C@H](NC(=O)[C@H](CC(C)C)[C@H](CC)N(O)C=O)C(=O)Nc1ccccn1 (stereo not given in full) | 62% | 38 nM | 73 nM | 1410 nM | 55 nM | 31 nM |  |  |
| CC[C@H](C)[C@H](NC(=O)[C@H](CC(C)C)[C@H](CC)N(O)C=O)C(=O)Nc1nccs1 | 48% | 45 nM | 24 nM | 92 nM | 42 nM | 11 nM |  |  |
| CC(C)C[C@@H](C(=O)N[C@H](C(N)=O)C(C)(C)C)[C@H](C)N(O)C=O |  |  | 33 nM | 3070 nM | 181 nM | 156 nM | 406 nM |  |
| CC[C@H](C)C(NC(=O)[C@H](CC(C)C)[C@H](C)N(O)C=O)C(=O)Nc1nccs1 (single isomer, unassigned) | 48% |  | 29 nM | 270 nM | 41 nM | 20 nM | 93 nM |  |
| CC(C)C[C@H](NC(=O)[C@H](CC(C)C)[C@H](C)N(O)C=O)C(=O)Nc1nccs1 |  |  | 17 nM | 1690 nM | 97 nM | 55 nM | 80 nM | inhibition (Mus musculus [7]): inactive |
